According to patent US12624049B2, “Salt and crystal forms of 4-amino-5-(6-(4-methylpiperazin-1-yl)-1H-benzo[d]imidazol-z-yl)thieno[2.3-b]pyridin-6(7H)-one” (UNIVERSITY HEALTH NETWORK, priority 2020, dated 2026):
≈ marks a conversion by molar mass, not a printed value. Structures can show the parent of a compound that is named as a salt. Where two headings read alike, the source gives them in different places. Each block holds one molecule with its values, some of them ahead of it.

Tests used:
[1] = Hygroscopicity measurement by DVS apparatus; assay type: physicochemical; settings: for Change in Mass (%) Water uptake at 30% RH / Change in Mass (%) Water uptake at 60% RH / Change in Mass (%) Water uptake at 90% RH: DVS, 25° C.
Procedure: In another embodiment, 1:1 Compound (I) tartrate salt is characterized by a hygroscopicity measurement, wherein water uptake is less than 4% (e.g. 2% or 1%) of the mass of the tartrate salt at 90% relative humidity (RH); or less than 2% (e.g. 1% or 0.5%) of the mass of the tartrate salt at 60% RH; or less than 1% (e.g. 0.5% or 0.1%) of the mass of the tartrate salt at 30% RH. The hygroscopicity in different relative humidity (RH) is measured under following conditions: • i) drying between 0.5 and 1.5 mg of the tartrate salt under a nitrogen atmosphere at 0% relative humidity for 2 hours; • ii) increasing or decreasing the relative humidity in steps of 10% from 0% to 90% then to 0%; • iii) maintaining the relative humidity at each step until the mass change compared to the mass of the original tartrate salt per minute is less than 0.01 (%/min), provided that minimum and maximum duration time at each step is 10 minutes and 180 minutes, respectively; and • iv) measuring the mass of the tartrate salt at the desired relative humidity (e.g., 90%, 60%, or 30%) and wherein steps i)-iv) are carried out at 25° C.
The compound to be tested is submitted to hygroscopicity test by means of a DVS apparatus. The testing parameters are in Table 5.

[2] = Solubility in water, SGF and FaSSIF (supernatant by HPLC/UPLC); assay type: physicochemical; settings: for Solubility (mg/mL) FaSSIF: fasted state simulated intestinal fluid buffer, target 2 mg/mL; for Solubility (mg/mL) FaSSIF / Solubility (mg/mL) SGF: 24 h at 37° C.; for Solubility (mg/mL) SGF: simulated gastric fluid buffer, target 10 mg/mL; for Solubility (mg/mL) water: stirred 1 h at ambient temperature, analyzed at 24 h
Procedure: The compounds to be tested were prepared in 3 different media as described below.
Samples prepared in water: approximately 30-40 mg of test material was weighted into a glass vial. 1 mL of water was added. The sample was stirred for 1 h at ambient temperature and the sample was analyzed by HPLC at 24 h.
Samples prepared in simulated gastric fluid (SGF) buffer: approximately 40 mg of test material was weighted into a glass vial. 4 mL of SGF buffer was added to make a target concentration at 10 mg/mL. The sample was stirred for 24 h at 37° C. and the sample was analyzed by HPLC at 24 h.
Samples prepared in fasted state simulated intestinal fluid (FaSSIF) buffer: approximately 8 mg of test material was weighted into a glass vial. 4 mL of FassiF buffer was added to make a target concentration at 2 mg/mL. The sample was stirred for 24 h at 37° C. and the sample was analyzed by HPLC at 24 h.
The samples were stirred for 1 h at ambient temperature or 24 h at 37° C. The samples were then centrifuged and the resulting supernatants were analyzed by HPLC to determine the solubility.

[3] = Pharmacokinetics after single oral dose (powder in capsule), Compound (I) plasma level by LC/MS; assay type: in vivo, male Beagle dogs
Procedure: A single dose as powder in capsule of Compound (I), 1:1 Compound (I) mono HCl salt (Batch 3), di-HCl salt of Compound (I), and 1:1 Compound (I) tartrate salt was administrated to male Beagle dogs at either 125 mg/kg or 150 mg/kg. Blood samples were collected for up to 24 h and the plasma was analyzed for Compound (I) plasma level by LC/MS.

[4] = Long term stability under 3 storage conditions (appearance, HPLC purity/impurities, XRPD form); assay type: physicochemical; settings: for Purity / Total amount of impurities: HPLC; for Crystalline form: XRPD
Procedure: A representative method used for stability evaluation is summarized Table 2.
Purity and stability of 4-amino-5-(6-(4-methylpiperazin-1-yl)-1H-benzo[d]imidazol-2-yl)thieno[2,3-b]pyridin-6(7H)-one (I) tartrate have been tested. Stability samples were prepared and stored under 3 different storage conditions: 2-8° C./ambient RH, 25° C./60% RH, and 40° C./75% RH. Stability samples were removed from their storage conditions within each pull window, and the samples were allowed to equilibrate to ambient conditions prior to analysis. The appearance was evaluated by visual inspection, purity and total amount of impurities were analyzed by HPLC and crystalline form was characterized by XRPD.

Change in Mass (%) Water uptake at 30% RH [1]: 0.5% | Change in Mass (%) Water uptake at 60% RH [1]: 0.9% | Change in Mass (%) Water uptake at 90% RH [1]: 26% | Solubility (mg/mL) FaSSIF [2]: 0.09 mg/mL (≈ 237 µM) | Solubility (mg/mL) SGF [2]: 0.5 mg/mL (≈ 1310 µM) | Solubility (mg/mL) water [2]: 0.3 mg/mL (≈ 788 µM) | AUC0−tlast ([3]; beagle dogs, oral dose 125 mg/kg, powder in capsule, plasma, up to 24 h, 125 mg/kg): 2264 ng·h/mL | Cmax ([3]; male, beagle, dog, plasma, po, 125 mg/kg, beagle dogs, oral dose 125 mg/kg, powder in capsule, plasma, read-out: Cmax): 301 ng/mL
SMILES: CN1CCN(c2ccc3nc(-c4c(N)c5ccsc5[nH]c4=O)[nH]c3c2)CC1 [Free base, 4-amino-5-(6-(4-methylpiperazin-1-yl)-1H-benzo[d]imidazol-2-yl)thieno[2,3-b]pyridin-6(7H)-one]

Change in Mass (%) Water uptake at 30% RH [1]: 0.06% | Change in Mass (%) Water uptake at 60% RH [1]: 0.3% | Change in Mass (%) Water uptake at 90% RH [1]: 0.7% | Hygroscopicity (in words) ([1]; crystalline form, see Example 6): non-hygroscopic | Solubility (mg/mL) FaSSIF [2]: 0.02 mg/mL | Solubility in water and in simulated gastric fluids (in words) ([2]; see Example 7 and Table 7): improved solubility | Solubility (mg/mL) SGF [2]: 9.0 mg/mL | Purity ([4]; 5° C./ambient RH, 1 month): 100% | Total amount of impurities ([4]; 5° C./ambient RH, 1 month): 0.03% | Purity ([4]; 5° C./ambient RH, 3 month): 100% | Total amount of impurities ([4]; 5° C./ambient RH, 3 month): 0.0% | Purity ([4]; 5° C./ambient RH, 6 month): 100% | Total amount of impurities ([4]; 5° C./ambient RH, 6 month): 0.03% | Purity ([4]; 5° C./ambient RH, 12 month): 100% | Total amount of impurities ([4]; 5° C./ambient RH, 12 month): 0.03% | Purity ([4]; 5° C./ambient RH, Initial): 100% | Total amount of impurities ([4]; 5° C./ambient RH, Initial): 0.03% | Crystalline form ([4]; 5° C./ambient RH, Initial): Yes | Purity ([4]; 25° C./60% RH, 1 month): 100% | Total amount of impurities ([4]; 25° C./60% RH, 1 month): 0.02% | Purity ([4]; 25° C./60% RH, 3 month): 100% | Total amount of impurities ([4]; 25° C./60% RH, 3 month): 0.03% | Purity ([4]; 25° C./60% RH, 6 month): 100% | Total amount of impurities ([4]; 25° C./60% RH, 6 month): 0.03% | Purity ([4]; 25° C./60% RH, 12 month): 100% | Total amount of impurities ([4]; 25° C./60% RH, 12 month): 0.03% | Purity ([4]; 25° C./60% RH, Initial): 100% | Total amount of impurities ([4]; 25° C./60% RH, Initial): 0.03% | Crystalline form ([4]; 25° C./60% RH, Initial): Yes | Purity ([4]; 40° C./75% RH, 1 month): 100% | Total amount of impurities ([4]; 40° C./75% RH, 1 month): 0.02% | Purity ([4]; 40° C./75% RH, 3 month): 100% | Total amount of impurities ([4]; 40° C./75% RH, 3 month): 0.03% | Purity ([4]; 40° C./75% RH, 6 month): 100% | Total amount of impurities ([4]; 40° C./75% RH, 6 month): 0.03% | Purity ([4]; 40° C./75% RH, 12 month): 100% | Total amount of impurities ([4]; 40° C./75% RH, 12 month): 0.03% | Purity ([4]; 40° C./75% RH, Initial): 100% | Total amount of impurities ([4]; 40° C./75% RH, Initial): 0.03% | Crystalline form ([4]; 40° C./75% RH, Initial): Yes | Shelf life (in words) ([4]; see Example 8): extended shelf life | Plasma concentrations in dogs following oral administration (in words) ([3]; compared to the free base and the mono HCl salt): improved plasma concentrations | AUC(0-t) ([3]; male, beagle, dog, plasma, po, 150 mg/kg, beagle dogs, oral dose 150 mg/kg, powder in capsule, plasma, up to 24 h, read-out: AUC0−tlast): 6550 ng·h/mL | Cmax ([3]; male, beagle, dog, plasma, po, 150 mg/kg, beagle dogs, oral dose 150 mg/kg, powder in capsule, plasma, read-out: Cmax): 514 ng/mL
SMILES: CN1CCN(c2ccc3nc(-c4c(N)c5ccsc5[nH]c4=O)[nH]c3c2)CC1 [Tartrate salt, 4-amino-5-(6-(4-methylpiperazin-1-yl)-1H-benzo[d]imidazol-2-yl)thieno[2,3-b]pyridin-6(7H)-one (I) tartrate]

Solubility (mg/mL) water ([2]; Di-Hydrochloride): 3.3 mg/mL | AUC0−tlast ([3]; beagle dogs, oral dose 125 mg/kg, powder in capsule, plasma, up to 24 h, Di-Hydrochloride, 125 mg/kg): 6862 ng·h/mL | Cmax ([3]; beagle dogs, oral dose 125 mg/kg, powder in capsule, plasma, Di-Hydrochloride, 125 mg/kg): 530 ng/mL
SMILES: CN1CCN(c2ccc3[nH]c(-c4c(N)c5ccsc5[nH]c4=O)nc3c2)CC1 [Di-HCl salt, 4-amino-5-(6-(4-methylpiperazin-1-yl)-1H-benzo[d]imidazol-2-yl)thieno[2,3-b]pydidin-6(7H)-one (I) Di-Hydrochloride]

Change in Mass (%) Water uptake at 30% RH [1]: 3.7% | Change in Mass (%) Water uptake at 60% RH [1]: 6.1% | Change in Mass (%) Water uptake at 90% RH [1]: 38.3% | Solubility (mg/mL) FaSSIF ([2]; Batch 3): 0.22 mg/mL | Solubility (mg/mL) SGF ([2]; Batch 3): 9.0 mg/mL | Solubility (mg/mL) water ([2]; Batch 3): 10.2 mg/mL | AUC0−tlast ([3]; beagle dogs, oral dose 125 mg/kg, powder in capsule, plasma, up to 24 h, listed as Mono HCl (Batch 3), 125 mg/kg): 4354 ng·h/mL | Cmax ([3]; beagle dogs, oral dose 125 mg/kg, powder in capsule, plasma, listed as Mono HCl (Batch 3), 125 mg/kg): 547 ng/mL
SMILES: CN1CCN(c2ccc3nc(-c4c(N)c5ccsc5[nH]c4=O)[nH]c3c2)CC1 [Mono HCl salt (Batch 3)]
